Experimental data published in the NIST ThermoML archive (doi:10.1021/je060271a).
± gives the expanded uncertainty stated by the source.

Conditions: 323.15 K, Liquid, Vibrating tube method

SMILES: CCCC(=O)OCC(COC(=O)CCC)(COC(=O)CCC)COC(=O)CCC [pentaerythritol tetrabutyrate]
- mass density (6544.6 kPa): 1029.7 ± 1.2 kg/m3
- mass density (6573.1 kPa): 1029.6 ± 1.2 kg/m3
- mass density (6601.4 kPa): 1029.8 ± 1.2 kg/m3
- mass density (6630.4 kPa): 1029.8 ± 1.2 kg/m3
- mass density (6664.6 kPa): 1029.8 ± 1.2 kg/m3
- mass density (6693.3 kPa): 1029.7 ± 1.2 kg/m3
- mass density (6722.9 kPa): 1029.8 ± 1.2 kg/m3
- mass density (6752.8 kPa): 1029.7 ± 1.2 kg/m3
- mass density (6788.3 kPa): 1029.8 ± 1.2 kg/m3
- mass density (6819.1 kPa): 1029.9 ± 1.2 kg/m3
- mass density (6850.5 kPa): 1029.9 ± 1.2 kg/m3
- mass density (6881.6 kPa): 1030 ± 1.2 kg/m3
- mass density (6918.6 kPa): 1030 ± 1.2 kg/m3
- mass density (6950.2 kPa): 1029.9 ± 1.2 kg/m3
- mass density (6982.9 kPa): 1030 ± 1.2 kg/m3
- mass density (7021.5 kPa): 1030 ± 1.2 kg/m3
- mass density (7051.8 kPa): 1029.9 ± 1.2 kg/m3
- mass density (7078.5 kPa): 1030 ± 1.2 kg/m3
- mass density (7111.5 kPa): 1030.1 ± 1.2 kg/m3
- mass density (7138.8 kPa): 1030.1 ± 1.2 kg/m3
- mass density (7165.9 kPa): 1030.2 ± 1.2 kg/m3
- mass density (7198.9 kPa): 1030.1 ± 1.2 kg/m3
- mass density (7227.1 kPa): 1030.2 ± 1.2 kg/m3
- mass density (7255.4 kPa): 1030.1 ± 1.2 kg/m3
- mass density (7284.6 kPa): 1030.2 ± 1.2 kg/m3
- mass density (7319.5 kPa): 1030.1 ± 1.2 kg/m3
- mass density (7348.8 kPa): 1030.3 ± 1.2 kg/m3
- mass density (7378.7 kPa): 1030.3 ± 1.2 kg/m3
- mass density (7408.9 kPa): 1030.2 ± 1.2 kg/m3
- mass density (7446.2 kPa): 1030.3 ± 1.2 kg/m3
- mass density (7476.6 kPa): 1030.3 ± 1.2 kg/m3
- mass density (7507.3 kPa): 1030.3 ± 1.2 kg/m3
- mass density (7538.2 kPa): 1030.3 ± 1.2 kg/m3
- mass density (7569.8 kPa): 1030.5 ± 1.2 kg/m3
- mass density (7607.4 kPa): 1030.5 ± 1.2 kg/m3
- mass density (7638.7 kPa): 1030.6 ± 1.2 kg/m3
- mass density (7671.1 kPa): 1030.6 ± 1.2 kg/m3
- mass density (7709.5 kPa): 1030.4 ± 1.2 kg/m3
- mass density (7742.2 kPa): 1030.6 ± 1.2 kg/m3
- mass density (7775.2 kPa): 1030.6 ± 1.2 kg/m3
- mass density (7809.6 kPa): 1030.6 ± 1.2 kg/m3
- mass density (7843.9 kPa): 1030.6 ± 1.2 kg/m3
- mass density (7885.3 kPa): 1030.6 ± 1.2 kg/m3
- mass density (7920.5 kPa): 1030.6 ± 1.2 kg/m3
- mass density (7953.8 kPa): 1030.7 ± 1.2 kg/m3
- mass density (7983 kPa): 1030.8 ± 1.2 kg/m3
- mass density (8018.4 kPa): 1030.7 ± 1.2 kg/m3
- mass density (8049.1 kPa): 1030.6 ± 1.2 kg/m3
- mass density (8080.2 kPa): 1030.7 ± 1.2 kg/m3
- mass density (8117.6 kPa): 1030.9 ± 1.2 kg/m3
- mass density (8149.2 kPa): 1030.7 ± 1.2 kg/m3
- mass density (8176.4 kPa): 1030.7 ± 1.2 kg/m3
- mass density (8203 kPa): 1030.9 ± 1.2 kg/m3
- mass density (8233.4 kPa): 1031 ± 1.2 kg/m3
- mass density (8258.9 kPa): 1030.8 ± 1.2 kg/m3
- mass density (8285.5 kPa): 1030.9 ± 1.2 kg/m3
- mass density (8312 kPa): 1031.1 ± 1.2 kg/m3
- mass density (8343.3 kPa): 1030.9 ± 1.2 kg/m3
- mass density (8369.3 kPa): 1030.9 ± 1.2 kg/m3
- mass density (8401.7 kPa): 1031.1 ± 1.2 kg/m3
- mass density (8428.3 kPa): 1031.1 ± 1.2 kg/m3
- mass density (8455.7 kPa): 1031 ± 1.2 kg/m3
- mass density (8482.6 kPa): 1031.1 ± 1.2 kg/m3
- mass density (8515.8 kPa): 1031.2 ± 1.2 kg/m3
- mass density (8543.4 kPa): 1031.1 ± 1.2 kg/m3
- mass density (8571.8 kPa): 1031.1 ± 1.2 kg/m3
- mass density (8605.3 kPa): 1031.2 ± 1.2 kg/m3
- mass density (8634.6 kPa): 1031.2 ± 1.2 kg/m3
- mass density (8664.9 kPa): 1031.3 ± 1.2 kg/m3
- mass density (8693.6 kPa): 1031.2 ± 1.2 kg/m3
- mass density (8722 kPa): 1031.2 ± 1.2 kg/m3
- mass density (8757 kPa): 1031.2 ± 1.2 kg/m3
- mass density (8785.7 kPa): 1031.2 ± 1.2 kg/m3
- mass density (8815.3 kPa): 1031.3 ± 1.2 kg/m3
- mass density (8851 kPa): 1031.3 ± 1.2 kg/m3
- mass density (8880.8 kPa): 1031.3 ± 1.2 kg/m3
- mass density (8916.7 kPa): 1031.4 ± 1.2 kg/m3
- mass density (8947.2 kPa): 1031.4 ± 1.2 kg/m3
- mass density (8977.7 kPa): 1031.5 ± 1.2 kg/m3
- mass density (9015.1 kPa): 1031.4 ± 1.2 kg/m3
- mass density (9048.4 kPa): 1031.5 ± 1.2 kg/m3
- mass density (9079.8 kPa): 1031.5 ± 1.2 kg/m3
- mass density (9105.3 kPa): 1031.6 ± 1.2 kg/m3
- mass density (9137.4 kPa): 1031.5 ± 1.2 kg/m3
- mass density (9181.7 kPa): 1031.6 ± 1.2 kg/m3
- mass density (9214.1 kPa): 1031.5 ± 1.2 kg/m3
- mass density (9239.9 kPa): 1031.6 ± 1.2 kg/m3
- mass density (9278.9 kPa): 1031.6 ± 1.2 kg/m3
- mass density (9312 kPa): 1031.6 ± 1.2 kg/m3
- mass density (9352.1 kPa): 1031.7 ± 1.2 kg/m3
- mass density (9391.1 kPa): 1031.5 ± 1.2 kg/m3
- mass density (9424.9 kPa): 1031.7 ± 1.2 kg/m3
- mass density (9459.7 kPa): 1031.8 ± 1.2 kg/m3
- mass density (9501.9 kPa): 1031.8 ± 1.2 kg/m3
- mass density (9536.7 kPa): 1031.9 ± 1.2 kg/m3
- mass density (9571.9 kPa): 1031.8 ± 1.2 kg/m3
- mass density (9607.4 kPa): 1031.8 ± 1.2 kg/m3
- mass density (9650.6 kPa): 1031.8 ± 1.2 kg/m3
- mass density (9687.7 kPa): 1031.8 ± 1.2 kg/m3
- mass density (9732.6 kPa): 1032 ± 1.2 kg/m3
- mass density (9765 kPa): 1032 ± 1.2 kg/m3
- mass density (9791.2 kPa): 1032 ± 1.2 kg/m3
- mass density (9822.2 kPa): 1031.9 ± 1.2 kg/m3
- mass density (9848.9 kPa): 1032.1 ± 1.2 kg/m3
- mass density (9875.6 kPa): 1032.1 ± 1.2 kg/m3
- mass density (9907.5 kPa): 1032 ± 1.2 kg/m3
- mass density (9935 kPa): 1032 ± 1.2 kg/m3
- mass density (9961.9 kPa): 1032.1 ± 1.2 kg/m3
- mass density (9989 kPa): 1032.1 ± 1.2 kg/m3
- mass density (10021 kPa): 1032.1 ± 1.2 kg/m3
- mass density (10048 kPa): 1032.1 ± 1.2 kg/m3
- mass density (10082 kPa): 1032.2 ± 1.2 kg/m3
- mass density (10110 kPa): 1032.1 ± 1.2 kg/m3
- mass density (10138 kPa): 1032.2 ± 1.2 kg/m3
- mass density (10166 kPa): 1032.2 ± 1.2 kg/m3
- mass density (10200 kPa): 1032.2 ± 1.2 kg/m3
- mass density (10228 kPa): 1032.2 ± 1.2 kg/m3
- mass density (10262 kPa): 1032.2 ± 1.2 kg/m3
- mass density (10292 kPa): 1032.4 ± 1.2 kg/m3
- mass density (10321 kPa): 1032.3 ± 1.2 kg/m3
- mass density (10356 kPa): 1032.4 ± 1.2 kg/m3
- mass density (10385 kPa): 1032.5 ± 1.2 kg/m3
- mass density (10415 kPa): 1032.5 ± 1.2 kg/m3
- mass density (10445 kPa): 1032.5 ± 1.2 kg/m3
- mass density (10481 kPa): 1032.4 ± 1.2 kg/m3
- mass density (10512 kPa): 1032.5 ± 1.2 kg/m3
- mass density (10542 kPa): 1032.4 ± 1.2 kg/m3
- mass density (10579 kPa): 1032.5 ± 1.2 kg/m3
- mass density (10610 kPa): 1032.6 ± 1.2 kg/m3
- mass density (10641 kPa): 1032.6 ± 1.2 kg/m3
- mass density (10672 kPa): 1032.6 ± 1.2 kg/m3
- mass density (10710 kPa): 1032.5 ± 1.2 kg/m3
- mass density (10742 kPa): 1032.6 ± 1.2 kg/m3
- mass density (10774 kPa): 1032.6 ± 1.2 kg/m3
- mass density (10806 kPa): 1032.7 ± 1.2 kg/m3
- mass density (10845 kPa): 1032.8 ± 1.2 kg/m3
- mass density (10877 kPa): 1032.7 ± 1.2 kg/m3
- mass density (10916 kPa): 1032.7 ± 1.2 kg/m3
- mass density (10948 kPa): 1032.7 ± 1.2 kg/m3
- mass density (10982 kPa): 1032.7 ± 1.2 kg/m3
- mass density (11022 kPa): 1032.7 ± 1.2 kg/m3
- mass density (11055 kPa): 1032.8 ± 1.2 kg/m3
- mass density (11089 kPa): 1032.8 ± 1.2 kg/m3
- mass density (11123 kPa): 1032.9 ± 1.2 kg/m3
- mass density (11165 kPa): 1032.9 ± 1.2 kg/m3
- mass density (11200 kPa): 1032.8 ± 1.2 kg/m3
